Assays:
medaka Esr1 (mEsr1) [1] = biological target: T1, medaka Esr1 (mEsr1) (Oryzias latipes, UniProt P50241); assay: cell-based; parameters: species or system Japanese medaka (Oryzias latipes)
T1 sequence (P50241 1-620): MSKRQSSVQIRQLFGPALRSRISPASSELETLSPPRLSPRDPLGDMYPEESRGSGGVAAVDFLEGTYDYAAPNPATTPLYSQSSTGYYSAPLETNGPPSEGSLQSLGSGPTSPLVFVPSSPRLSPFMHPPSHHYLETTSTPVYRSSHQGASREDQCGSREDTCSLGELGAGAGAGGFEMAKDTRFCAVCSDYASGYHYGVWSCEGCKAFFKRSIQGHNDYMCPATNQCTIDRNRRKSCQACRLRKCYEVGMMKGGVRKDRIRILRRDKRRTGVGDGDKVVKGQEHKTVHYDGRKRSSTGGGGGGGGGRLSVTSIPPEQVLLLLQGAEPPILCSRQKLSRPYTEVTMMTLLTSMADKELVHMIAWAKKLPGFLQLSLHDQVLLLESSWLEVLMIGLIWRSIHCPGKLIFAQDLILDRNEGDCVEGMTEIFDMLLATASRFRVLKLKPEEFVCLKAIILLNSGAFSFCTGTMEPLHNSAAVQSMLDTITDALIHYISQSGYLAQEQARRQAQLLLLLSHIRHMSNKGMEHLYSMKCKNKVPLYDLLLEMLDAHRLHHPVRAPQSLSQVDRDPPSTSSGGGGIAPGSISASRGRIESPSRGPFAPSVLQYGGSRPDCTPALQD

medaka Esr1 (mEsr1) [2] = biological target: T1, medaka Esr1 (mEsr1); assay: Medaka Esr1 reporter gene assay, antagonist assay; format: cell-based, Japanese medaka (Oryzias latipes); conditions: E2 spiked at 1.0 nM (B); MAC = 1.0 × 10^−4 M
medaka ARβ (mArβ) [3] = biological target: T2, medaka ARβ (mArβ) (Oryzias latipes, UniProt D1MV73); assay: Medaka ARβ reporter gene assay, agonist assay; format: cell-based, Japanese medaka (Oryzias latipes)
T2 sequence (D1MV73 1-744): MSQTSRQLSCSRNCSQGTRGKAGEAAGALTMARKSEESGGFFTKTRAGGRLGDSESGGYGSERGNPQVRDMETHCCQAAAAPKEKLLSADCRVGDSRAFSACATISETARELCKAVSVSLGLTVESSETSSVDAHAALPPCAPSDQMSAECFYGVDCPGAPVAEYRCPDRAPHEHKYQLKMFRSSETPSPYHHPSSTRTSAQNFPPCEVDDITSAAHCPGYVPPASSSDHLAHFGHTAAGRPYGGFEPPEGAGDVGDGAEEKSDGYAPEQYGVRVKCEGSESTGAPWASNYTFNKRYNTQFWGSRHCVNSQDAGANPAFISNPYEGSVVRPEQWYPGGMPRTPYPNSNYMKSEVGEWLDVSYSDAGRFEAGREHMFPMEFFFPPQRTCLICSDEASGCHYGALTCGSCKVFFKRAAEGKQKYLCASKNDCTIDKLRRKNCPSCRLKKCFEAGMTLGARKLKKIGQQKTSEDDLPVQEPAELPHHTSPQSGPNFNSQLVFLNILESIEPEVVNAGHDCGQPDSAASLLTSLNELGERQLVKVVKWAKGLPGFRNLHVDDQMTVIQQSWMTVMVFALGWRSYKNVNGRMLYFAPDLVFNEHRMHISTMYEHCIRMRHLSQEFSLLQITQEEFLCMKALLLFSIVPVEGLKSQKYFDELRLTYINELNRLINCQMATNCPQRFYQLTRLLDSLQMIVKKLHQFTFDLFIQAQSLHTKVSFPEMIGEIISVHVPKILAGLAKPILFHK

medaka ARβ (mArβ) [4] = biological target: T2, medaka ARβ (mArβ); assay: Medaka ARβ reporter gene assay, antagonist assay; format: cell-based, Japanese medaka (Oryzias latipes)
[5] = test system: Japanese medaka (Oryzias latipes); assay: Fish Short‐Term Reproduction Assay; format: in vivo; conditions: for GSI Female / GSI Male / HSI Female / HSI Male / Length Female / Length Male / Weight Female / Weight Male: completion of exposure
[6] = measured concentration 0.0943 mg/L
[7] = measured concentration 0.939 mg/L
[8] = measured concentration 9.53 mg/L

Question: Which “In vitro positive: Esr” value (medaka Esr1 (mEsr1) [1]; mode of action in which EC50 or PC10 was obtained in RGA) does the source give for `O=C(c1ccc(O)cc1O)c1ccc(O)cc1O` [BP2, Benzophenone‐2] here?
Answer: Its value is “Esr”.

Question: What about the EC50 (medaka Esr1 (mEsr1) [1]; read-out: Agonistic activity EC50, HEK293 cells) of the same compound?
Answer: Its EC50 is 1.6 µM.

Question: And the Antagonistic activity (medaka Esr1 (mEsr1) [2])?
Answer: The Antagonistic activity was “NE (MAC = 1.0 × 10^−4 M)^(B)”.

Question: And the “Agonistic activity PC10” value (medaka ARβ (mArβ) [3]; HepG2 cells, concentration with 10% of maximum activity of 11KT)?
Answer: The value was “PC10 = 1.2 × 10^−5 M”.

Question: And the “Agonistic activity on mArβ (in words)” value (medaka ARβ (mArβ) [3]; only PC10 and not EC50 could be estimated)?
Answer: Its value is “positive agonistic activity”.

Question: And the “In vitro positive: aAr” value (medaka ARβ (mArβ) [4]; mode of action in which IC50 or IC30 was obtained in RGA)?
Answer: The value was “aAr”.

Question: What about the IC50 (medaka ARβ (mArβ) [4]; read-out: Antagonistic activity IC50, 11‐KT spiked at 50 nM (D)) of the same compound?
Answer: The IC50 was 40 µM.

Question: What about the “Antagonistic activity on mArβ (in words)” value (medaka ARβ (mArβ) [4]; transcriptional activity on mArβ by 11KT) of the same compound?
Answer: The value was “inhibitory potency”.

Question: What about the Fertility rate ([5]; 0.0943 mg/L measured, 21 d) of the same compound?
Answer: The Fertility rate was 95 ± 2.3%.

Question: What about the “Hepatic VTG, female” value ([5]; 0.0943 mg/L measured, 21 d) of the same compound?
Answer: Its value is 354 ± 105 ng/mg‐liver.

Question: And the “Hepatic VTG, male” value ([5]; 0.0943 mg/L measured, 21 d)?
Answer: The value was 0.5 ± 0.0 ng/mg‐liver.

Question: What about the Mortality ([5]; 0.0943 mg/L measured, 21 d) of the same compound?
Answer: Its Mortality is 0.0%.

Question: What about the “Mortality, number of dead fish” value ([5]; 0.0943 mg/L measured, 21 d) of the same compound?
Answer: Its value is 0.

Question: And the “Number of fertilized eggs (per female per day)” value ([5]; 0.0943 mg/L measured, 21 d)?
Answer: The value was 15 ± 2.2.

Question: And the “Number of total eggs (per female per day)” value ([5]; 0.0943 mg/L measured, 21 d)?
Answer: The value was 15 ± 2.3.

Question: And the “SSC female (joint plates with papillary processes)” value (from here on “SSC female”) ([5]; 0.0943 mg/L measured, 21 d)?
Answer: The value was 0 ± 0.

Question: And the “SSC male (joint plates with papillary processes)” value (shortened to “SSC male”) ([5]; 0.0943 mg/L measured, 21 d)?
Answer: Its value is 73 ± 7.0.

Question: And the Fertility rate ([5]; 0.939 mg/L measured, 21 d)?
Answer: Its Fertility rate is 94 ± 2.5%.

Question: And the “Hepatic VTG, female” value ([5]; 0.939 mg/L measured, 21 d)?
Answer: Its value is 398 ± 230 ng/mg‐liver.

Question: What about the “Hepatic VTG, male” value ([5]; 0.939 mg/L measured, 21 d) of the same compound?
Answer: The value was 0.9 ± 0.5 ng/mg‐liver.

Question: What about the Mortality ([5]; 0.939 mg/L measured, 21 d) of the same compound?
Answer: The Mortality was 4.2%.

Question: And the “Mortality, number of dead fish” value ([5]; 0.939 mg/L measured, 21 d)?
Answer: The value was 1.

Question: And the “Number of fertilized eggs (per female per day)” value ([5]; 0.939 mg/L measured, 21 d)?
Answer: Its value is 14 ± 2.3.

Question: And the “Number of total eggs (per female per day)” value ([5]; 0.939 mg/L measured, 21 d)?
Answer: The value was 15 ± 2.7.

Question: What about the “SSC female” value ([5]; 0.939 mg/L measured, 21 d) of the same compound?
Answer: Its value is 0 ± 0.

Question: What about the “SSC male” value ([5]; 0.939 mg/L measured, 21 d) of the same compound?
Answer: The value was 77 ± 20.

Question: What about the “Hepatic VTG, female” value ([5]; 9.53 mg/L measured, 21 d) of the same compound?
Answer: The value was 449 ± 114 ng/mg‐liver.

Question: And the Mortality ([5]; 9.53 mg/L measured, 21 d)?
Answer: Its Mortality is 0.0%.

Question: And the “Mortality, number of dead fish” value ([5]; 9.53 mg/L measured, 21 d)?
Answer: The value was 0.

Question: And the “Number of fertilized eggs (per female per day)” value ([5]; 9.53 mg/L measured, 21 d)?
Answer: Its value is 13 ± 1.7.

Question: What about the “Number of total eggs (per female per day)” value ([5]; 9.53 mg/L measured, 21 d) of the same compound?
Answer: The value was 14 ± 1.7.

Question: What about the “SSC female” value ([5]; 9.53 mg/L measured, 21 d) of the same compound?
Answer: Its value is 0 ± 0.

Question: And the “SSC male” value ([5]; 9.53 mg/L measured, 21 d)?
Answer: Its value is 79 ± 8.4.

Question: And the “Hepatic VTG, male” value ([5]; 9.53 mg/L measured, 21 d, sig. ↑ vs control)?
Answer: The value was 393 ± 306 ng/mg‐liver.

Question: What about the Fertility rate ([5]; 9.53 mg/L measured, 21 d, sig. ↓ vs control) of the same compound?
Answer: Its Fertility rate is 90 ± 3.5%.

Question: What about the “LOEC, elevated hepatic VTG in males” value ([5]; 21 d) of the same compound?
Answer: The value was 9.53 mg/L.

Question: What about the LOECmVTG ([5]; LOEC on VTG induction in males) of the same compound?
Answer: The LOECmVTG was 9,530 μg/L.

Question: What about the LOECREPRO ([5]; LOEC on reproduction (fecundity and/or fertility)) of the same compound?
Answer: The LOECREPRO was 9,530 μg/L.

Question: What about the “LOECREPRO (reduction in fecundity or fertility)” value ([5]; concentrations without overt toxicity) of the same compound?
Answer: Its value is 9,530 μg/L.

Question: And the LOECTOX ([5]; lowest observed effect concentration on mortality)?
Answer: The LOECTOX was “ND (>9,530) μg/L”.

Question: What about the “GSI Female” value [5, 6] of the same compound?
Answer: The value was 6.9 ± 0.3%.

Question: What about the “GSI Male” value [5, 6] of the same compound?
Answer: Its value is 1.07 ± 0.14%.

Question: And the “HSI Female” value [5, 6]?
Answer: Its value is 2.8 ± 0.87%.

Question: And the “HSI Male” value [5, 6]?
Answer: Its value is 1.8 ± 0.37%.

Question: And the “Length Female” value [5, 6]?
Answer: Its value is 30.2 ± 0.4 mm.

Question: And the “Length Male” value [5, 6]?
Answer: Its value is 30.8 ± 1.2 mm.

Question: And the “Weight Female” value [5, 6]?
Answer: The value was 296 ± 16 mg.

Question: And the “Weight Male” value [5, 6]?
Answer: The value was 291 ± 27 mg.

Question: And the “GSI Female” value [5, 7]?
Answer: Its value is 7.6 ± 1.2%.

Question: What about the “GSI Male” value [5, 7] of the same compound?
Answer: Its value is 0.69 ± 0.15%.

Question: What about the “HSI Female” value [5, 7] of the same compound?
Answer: Its value is 3.1 ± 0.68%.

Question: What about the “HSI Male” value [5, 7] of the same compound?
Answer: Its value is 1.9 ± 0.24%.

Question: And the “Length Female” value [5, 7]?
Answer: Its value is 30.3 ± 1.0 mm.

Question: What about the “Length Male” value [5, 7] of the same compound?
Answer: Its value is 30.6 ± 1.1 mm.

Question: What about the “Weight Female” value [5, 7] of the same compound?
Answer: The value was 304 ± 48 mg.

Question: And the “Weight Male” value [5, 7]?
Answer: The value was 290 ± 32 mg.

Question: What about the “GSI Female” value [5, 8] of the same compound?
Answer: The value was 8.6 ± 0.4%.

Question: What about the “GSI Male” value [5, 8] of the same compound?
Answer: Its value is 0.79 ± 0.23%.

Question: And the “HSI Female” value [5, 8]?
Answer: Its value is 3.5 ± 0.58%.

Question: And the “HSI Male” value [5, 8]?
Answer: The value was 2.0 ± 0.55%.

Question: And the “Length Female” value [5, 8]?
Answer: The value was 30.4 ± 0.5 mm.

Question: What about the “Length Male” value [5, 8] of the same compound?
Answer: Its value is 31.9 ± 1.1 mm.

Question: What about the “Weight Female” value [5, 8] of the same compound?
Answer: The value was 295 ± 8.0 mg.

Question: And the “Weight Male” value [5, 8]?
Answer: The value was 327 ± 34 mg.

From paper PMC9297976 (Journal of Applied Toxicology, 2021)
